According to patent US20240368203A1, “DEGRADATION OF (EGFR) BY CONJUGATION OF EGFR INHIBITORS WITH E3 LIGASE LIGAND AND METHODS OF USE” (BeiGene, Ltd., priority 2022, published 2024):

Experiments:
EGFR-Del19/T790M/C797S = assay: EGFR degradation HTRF assay in H1975-clone #28 cells; format: cell-based; details: H1975-clone #28 (Del19/T790M/C797S) cells, 16 h treatment; for DC50: IC50 (DC50), read-out: DC50(nM) H1975 # 28 DTC; for Dmax (%) H1975 # 28 DTC: maximum percentage of inhibition (degradation)
Experimental: (§1) H1975-clone #28(Del19/T790M/C797S) and H1975-clone #25(L858R/T790M/C797S). EGFR-Del19/T790M/C797S and EGFR-L858R/T790M/C797S were stably expressed in H1975 cell lines by lentivirus-mediated over-expression, respectively. The EGFR over-expressed cells then underwent knockout, in which the EGFR targeting sgRNA was designed to only target the endogenous EGFR copies and preserve the exogenous EGFR copies. Followed by knockout, the edited H1975 cells were seeded in 96 well plates at the concentration of […], cultured for about 2 weeks to allow single clones formation. The formed clones were screened by DNA sequencing and whole exon sequencing analysis for the desired edition.
(§2) H1975-clone #28, and H1975-clone #25 were finally confirmed as homozygous Del19/T790M/C797S EGFR, and L858R/T790M/C797S EGFR clones, respectively.
(§3) H1975-#25 and H1975-#28 cells are treated with compounds diluted in 0.2% DMSO cell culture medium on day 2, incubate for 16 h, 37° C., 5% CO2. the final concentration of compounds in all assay is start with 10 uM, 5-fold dilution, total 8 doses were included.
(§4) After 16 h treatment, add HTRF lysis buffer to each well; seal the plate and incubate 1 hour at room temperature on a plate shaker; Once the cells are lysed, 16 μL of cell lysate are transferred to a PE 384-well HTRF detection plate; 4 μL of pre-mixed HTRF antibodies are added to each well; Cover the plate with a plate sealer, spin 1000 rpm for 1 min, Incubate overnight at room temperature; Read on BMG PheraStar with HTRF protocol (337 nm-665 nm-620 nm).
(§5) The inhibition (degradation) percentage of the compound was calculated by the following equation:
(§6) Inhibition percentage of Compound=100−100×(Signal−low control)/(High control−low control),
(§7) The IC50 (DC50) value of a compound can be obtained by fitting the following equation
(§8) Wherein, X and Y are known values, and IC50, Hillslope, Top and Bottom are the parameters obtained by fitting with software. Y is the inhibition percentage (calculated from the equation), X is the concentration of the compound; IC50 is the concentration of the compound when the 50% inhibition is reached. The smaller the IC50 value is, the stronger the inhibitory ability of the compound is. Vice versa, the higher the IC50 value is, the weaker the ability the inhibitory ability of the compound is; Hillslope represents the slope of the fitted curve, generally around 1 *; Bottom represents the minimum value of the curve obtained by data fitting, which is generally 0%±20%; Top represents the maximum value of the curve obtained by data fitting, which is generally 100%±20%. The experimental data were fitted by calculating and analyzing with Dotmatics data analysis software.

EGFR-L858R/T790M/C797S = biological target: T1, EGFR-L858R/T790M/C797S (Homo sapiens, UniProt P00533, C797S/L858R/T790M); assay: EGFR degradation HTRF assay in H1975-clone #25 cells; format: cell-based; details: 16 h treatment; for DC50: H1975-clone #25 (L858R/T790M/C797S) cells, IC50 (DC50), read-out: DC50(nM) H1975 # 25-LTC; for Dmax: NCI-H1975, H1975-clone #25 (L858R/T790M/C797S) cells, maximum percentage of inhibition (degradation), read-out: Dmax (%) H1975 # 25-LTC
T1 construct: expressed in transfected cells; host or cells: H1975-clone #25 (lentiviral over-expression, endogenous EGFR knocked out)
T1 sequence (P00533 25-1210 T790M/C797S/L858R): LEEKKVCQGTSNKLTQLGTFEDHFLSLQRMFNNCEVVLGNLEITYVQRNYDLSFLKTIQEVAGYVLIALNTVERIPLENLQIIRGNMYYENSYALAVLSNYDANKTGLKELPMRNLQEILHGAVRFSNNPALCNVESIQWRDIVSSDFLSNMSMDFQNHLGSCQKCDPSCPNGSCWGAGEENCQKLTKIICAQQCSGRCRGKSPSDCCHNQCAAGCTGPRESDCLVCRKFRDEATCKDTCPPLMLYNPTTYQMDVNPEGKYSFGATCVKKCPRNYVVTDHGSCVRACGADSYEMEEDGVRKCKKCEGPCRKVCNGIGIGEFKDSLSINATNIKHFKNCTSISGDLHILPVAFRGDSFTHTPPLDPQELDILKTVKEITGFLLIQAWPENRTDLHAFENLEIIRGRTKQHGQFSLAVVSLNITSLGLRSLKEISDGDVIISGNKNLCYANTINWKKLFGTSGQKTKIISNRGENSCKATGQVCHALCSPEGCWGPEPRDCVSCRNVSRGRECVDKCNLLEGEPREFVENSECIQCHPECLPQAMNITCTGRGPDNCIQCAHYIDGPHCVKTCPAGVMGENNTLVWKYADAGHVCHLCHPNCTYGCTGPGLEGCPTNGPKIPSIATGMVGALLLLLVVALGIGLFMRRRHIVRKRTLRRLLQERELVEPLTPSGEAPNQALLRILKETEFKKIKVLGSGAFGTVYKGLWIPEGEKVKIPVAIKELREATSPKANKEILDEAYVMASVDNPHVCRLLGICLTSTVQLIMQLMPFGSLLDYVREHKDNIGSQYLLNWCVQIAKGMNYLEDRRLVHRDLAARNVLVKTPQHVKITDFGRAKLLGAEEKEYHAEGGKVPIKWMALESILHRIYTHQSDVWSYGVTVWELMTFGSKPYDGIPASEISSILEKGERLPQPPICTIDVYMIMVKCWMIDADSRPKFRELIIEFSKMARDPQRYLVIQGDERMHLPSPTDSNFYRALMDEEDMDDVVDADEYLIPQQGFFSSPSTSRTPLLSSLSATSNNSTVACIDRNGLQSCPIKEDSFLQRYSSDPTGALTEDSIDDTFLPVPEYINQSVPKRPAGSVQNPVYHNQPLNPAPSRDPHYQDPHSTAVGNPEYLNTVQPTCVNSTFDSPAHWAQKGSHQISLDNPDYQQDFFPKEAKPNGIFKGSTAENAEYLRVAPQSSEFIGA
Experimental: as §1, §2, §3, §4, §5, §6, §7, §8

| SMILES | DC50 (EGFR-Del19/T790M/C797S) | DC50 (EGFR-L858R/T790M/C797S) | Dmax (EGFR-L858R/T790M/C797S) | Dmax (%) H1975 # 28 DTC (EGFR-Del19/T790M/C797S) |
| --- | --- | --- | --- | --- |
| CCc1cc(Nc2ncc(Br)c(Nc3ccc4nc(C)c(F)cc4c3P(C)(C)=O)n2)c(OC)cc1N1CCC2(CCN(CCc3cc(F)c([C@H]4CCC(=O)NC4=O)c(F)c3)CC2)CC1 [Example 6, (R)-3-(4-(2-(9-(4-((5-bromo-4-((5-(dimethylphosphoryl)-3-fluoro-2-methylquinolin-6-yl)amino)pyrimidin-2-yl)amino)-2-ethyl-5-methoxyphenyl)-3,9-diazaspiro[5.5]undecan-3-yl)ethyl)-2,6-difluorophenyl)piperidine-2,6-dione] | 3.1 nM | 9 nM | 89% | 80% |
| CCc1cc(Nc2ncc(Cl)c(Nc3ccc4nc(C)c(F)cc4c3P(C)(C)=O)n2)c(OC)cc1N1CCC(N2CCC(N3CCN(c4cc(F)c([C@H]5CCC(=O)NC5=O)c(F)c4)CC3)CC2)CC1 [Example 12, (R)-3-(4-(4-(1′-(4-((5-chloro-4-((5-(dimethylphosphoryl)-3-fluoro-2-methylquinolin-6-yl)amino)pyrimidin-2-yl)amino)-2-ethyl-5-methoxyphenyl)-[1,4′-bipiperidin]-4-yl)piperazin-1-yl)-2,6-difluorophenyl)piperidine-2,6-dione] | 2.9 nM | 2.5 nM | 92% | 91% |
| CCc1ncc2c(P(C)(C)=O)c(Nc3nc(Nc4cc(CC)c(N5CCC(N6CC(N7CCC(c8cc(F)c([C@H]9CCC(=O)NC9=O)c(F)c8)CC7)C6)CC5)cc4OC)ncc3Br)ccc2n1 [Example 13, (R)-3-(4-(1-(1-(1-(4-((5-bromo-4-((5-(dimethylphosphoryl)-2-ethylquinazolin-6-yl)amino)pyrimidin-2-yl)amino)-2-ethyl-5-methoxyphenyl)piperidin-4-yl)azetidin-3-yl)piperidin-4-yl)-2,6-difluorophenyl)piperidine-2,6-dione] | 0.7 nM | 1.8 nM | 94% | 92% |
| CCc1ccc2c(P(C)(C)=O)c(Nc3nc(Nc4cc(CC)c(N5CCC(N6CC(N7CCC(c8cc(F)c([C@H]9CCC(=O)NC9=O)c(F)c8)CC7)C6)CC5)cc4OC)ncc3Br)ccc2n1 [Example 14, (R)-3-(4-(1-(1-(1-(4-((5-bromo-4-((5-(dimethylphosphoryl)-2-ethylquinolin-6-yl)amino)pyrimidin-2-yl)amino)-2-ethyl-5-methoxyphenyl)piperidin-4-yl)azetidin-3-yl)piperidin-4-yl)-2,6-difluorophenyl)piperidine-2,6-dione] | 1.9 nM | 2.1 nM | 91% | 89% |
| CCOc1cc(N2CCC(N3CC(N4CCC(c5cc(F)c([C@H]6CCC(=O)NC6=O)c(F)c5)CC4)C3)CC2)c(CC)cc1Nc1ncc(Cl)c(Nc2ccc3nc(C)c(F)cc3c2P(C)(C)=O)n1 [Example 15, (R)-3-(4-(1-(1-(1-(4-((5-chloro-4-((5-(dimethylphosphoryl)-3-fluoro-2-methylquinolin-6-yl)amino)pyrimidin-2-yl)amino)-5-ethoxy-2-ethylphenyl)piperidin-4-yl)azetidin-3-yl)piperidin-4-yl)-2,6-difluorophenyl)piperidine-2,6-dione] | 2.7 nM | 3.3 nM | 94% | 95% |
| CCc1cc(Nc2ncc(Br)c(Nc3ccc4nc(C)c(F)cc4c3P(C)(C)=O)n2)c(OC)cc1N1CCC(N2CCC3(CCN(c4cc(F)c([C@H]5CCC(=O)NC5=O)c(F)c4)C3)C2)CC1 (stereo partly drawn) [Example 17, (3R)-3-(4-(7-(1-(4-((5-bromo-4-((5-(dimethylphosphoryl)-3-fluoro-2-methylquinolin-6-yl)amino)pyrimidin-2-yl)amino)-2-ethyl-5-methoxyphenyl)piperidin-4-yl)-2,7-diazaspiro[4.4]nonan-2-yl)-2,6-difluorophenyl)piperidine-2,6-dione] | 1.7 nM | 2.9 nM | 87% | 92% |
| CCc1ncc2c(P(C)(C)=O)c(Nc3nc(Nc4cc(CC)c(N5CCC(N6CCN(C7CN(c8cccc9c8n(C)c(=O)n9C8CCC(=O)NC8=O)C7)CC6)CC5)cc4OC)ncc3Br)ccc2n1 (centres unmarked) [Example 23, 3-(4-(3-(4-(1-(4-((5-bromo-4-((5-(dimethylphosphoryl)-2-ethylquinazolin-6-yl)amino)pyrimidin-2-yl)amino)-2-ethyl-5-methoxyphenyl)piperidin-4-yl)piperazin-1-yl)azetidin-1-yl)-3-methyl-2-oxo-2,3-dihydro-1H-benzo[d]imidazol-1-yl)piperidine-2,6-dione] | 0.6 nM | 0.9 nM | 80% | 74% |
| CCc1cc(Nc2ncc(Br)c(Nc3ccc4nc(C)c(F)cc4c3P(C)(C)=O)n2)c(OC)cc1N1CCC(N2CCN(C(=O)C3CN(c4ccc(F)c5c4n(C)c(=O)n5[C@H]4CCC(=O)NC4=O)C3)CC2)CC1 [Example 24, (S)-3-(4-(3-(4-(1-(4-((5-bromo-4-((5-(dimethylphosphoryl)-3-fluoro-2-methylquinolin-6-yl)amino)pyrimidin-2-yl)amino)-2-ethyl-5-methoxyphenyl)piperidin-4-yl)piperazine-1-carbonyl)azetidin-1-yl)-7-fluoro-3-methyl-2-oxo-2,3-dihydro-1H-benzo[d]imidazol-1-yl)piperidine-2,6-dione] | 0.6 nM | 1.4 nM | 88% | 87% |

More lines, main results first:

| DC50 (EGFR-Del19/T790M/C797S) | DC50 (EGFR-L858R/T790M/C797S) | Dmax (EGFR-L858R/T790M/C797S) | SMILES | Dmax (%) H1975 # 28 DTC (EGFR-Del19/T790M/C797S) |
| --- | --- | --- | --- | --- |
| 0.6 nM | 1.6 nM | 87% | CCc1cc(Nc2ncc(Br)c(Nc3ccc4nc(C)c(F)cc4c3P(C)(C)=O)n2)c(OC)cc1N1CCC(N2CCN(C3CN(c4cc(F)c([C@H]5CCC(=O)NC5=O)c(F)c4)C3)CC2)CC1 [Example 8, (R)-3-(4-(3-(4-(1-(4-((5-bromo-4-((5-(dimethylphosphoryl)-3-fluoro-2-methylquinolin-6-yl)amino)pyrimidin-2-yl)amino)-2-ethyl-5-methoxyphenyl)piperidin-4-yl)piperazin-1-yl)azetidin-1-yl)-2,6-difluorophenyl)piperidine-2,6-dione] | 80% |
| 0.6 nM | 1.8 nM | 78% | CCc1ccc2c(P(C)(C)=O)c(Nc3nc(Nc4cc(CC)c(N5CCC(N6CCN(C7CN(c8cccc9c8n(C)c(=O)n9C8CCC(=O)NC8=O)C7)CC6)CC5)cc4OC)ncc3Br)ccc2n1 (centres unmarked) [Example 21, 3-(4-(3-(4-(1-(4-((5-bromo-4-((5-(dimethylphosphoryl)-2-ethylquinolin-6-yl)amino)pyrimidin-2-yl)amino)-2-ethyl-5-methoxyphenyl)piperidin-4-yl)piperazin-1-yl)azetidin-1-yl)-3-methyl-2-oxo-2,3-dihydro-1H-benzol[d]imidazol-1-yl)piperidine-2,6-dione] | 77% |
| 0.6 nM | 0.9 nM | 83% | CCc1cc(Nc2ncc(Br)c(Nc3ccc4nc(C)c(F)cc4c3P(C)(C)=O)n2)c(OC)cc1N1CCC(N2CCN(C3CN(c4cccc5c4n(C)c(=O)n5C4CCC(=O)NC4=O)C3)CC2)CC1 (centres unmarked) [Example 22, 3-(4-(3-(4-(1-(4-((5-bromo-4-((5-(dimethylphosphoryl)-3-fluoro-2-methylquinolin-6-yl)amino)pyrimidin-2-yl)amino)-2-ethyl-5-methoxyphenyl)piperidin-4-yl)piperazin-1-yl)azetidin-1-yl)-3-methyl-2-oxo-2,3-dihydro-1H-benzo[d]imidazol-1-yl)piperidine-2,6-dione] | 74% |
